Data reported in patent US12721912B2, “Radiopharmaceutical compositions for actinium in targeted radionuclide therapy” (Curium US LLC, priority 2024, dated 2026).
Like-named read-outs stand apart in the source and are kept apart here.

How the values were obtained:
[1] = system: patients with mCRPC; conditions: cited from earlier work
[2] = cited from earlier work
[3] = system: patients with mCRPC; conditions: cited from earlier work; remark: listed apart in the source
[4] = Process A / process B injection stored at 5, 22.5, 32.5 and 40° C.: radiochemical purity by radio-TLC (Tables 21, 22); assay type: physicochemical; conditions: 5-40° C.
Method: The radio-TLC method was performed as follows: 5 μl or 10 μl of the sample was spotted onto the application line (1.5 cm from the lower edge of the plate) of a TLC plate (Merck Silica Gel 60 F254, plate size 20×100 mm). The TLC plate was developed in a TLC chamber using 0.1 M citric acid (adjusted to pH 5) as mobile phase. The plate was removed from the chamber when the eluent front reached 7.5 cm distance from the application line. The plates were analyzed with a radio-TLC scanner after secular equilibrium between ^225Ac and daughter nuclides was reached (minimum of 7 hours). […]
In process B, radiolabeling is performed in 11.3 mg/ml sodium ascorbate solution and the 0.04 M HCl is neutralized by adding 1 ml of 0.04 M NaOH solution into the reactor prior to labeling. The final formulation in process B is prepared to an intended radioactivity concentration by diluting with 11.3 mg/ml sodium ascorbate solution.
To compare the processes, ^225Ac-PSMA I&T injection was prepared at around 1 mCi scale using both processes. […] Radioactivity concentration was 468 kBq/ml in process A and 969 kBq/ml in process B. […]
The purity of ^225Ac-PSMA I&T samples was analyzed by the radio-TLC and HPLC fraction collection methods described previously at different time points.

[5] = Metal scavenger (DTPA) formulations: radiochemical stability by radio-TLC at 40° C. (Table 17); assay type: physicochemical; conditions: 11.3 mg/ml sodium ascorbate formulation, 0.0005-0.01 mg/ml DTPA
Method: The mixture was then divided into four samples which were diluted with suitable amount WFI and DTPA solution to achieve concentrations of 0.0005 mg/ml, 0.001 mg/ml, 0.005 mg/ml, and 0.01 mg/ml of DTPA in the final formulations. […] The samples were kept at 40° C.

[6] = subgroup of 11 patients with prior ^177Lu-PSMA treatment
[7] = subgroup with prior ^177Lu-PSMA radioligand therapy

(25)-2-[[(1S)-1-carboxylato-5-[[8-[[(5R)-5-carboxylato-5-[[(2R)-2-[[(2R)-2-[[(4R)-4-carboxylato-4-[4,7,10-tris(carboxylatomethyl)-1,4,7,10-tetrazacyclododec-1-yl]butanoyl]amino]-3-(4-hydroxy-3-iodophenyl)propanoyl]amino]-3-phenylpropanoyl]amino]pentyl]amino]-8-oxooctanoyl]amino]pentyl]carbamoylamino]pentanedioate; hydron; actinium-225(3+) [^225Ac-PSMA I&T]
Grade 3 anemia after TAT ([1]; 2 of them with grade 2 anemia at baseline): 3 of the 14 patients | Biochemical response PSA50 ([1]; 14 patients, 7.8 MBq per cycle): 50% | Grade 1 nephrotoxicity ([1]; 14 patients, FIG. 13): one | Hematologic toxicity ([1]; 14 patients, FIG. 13): mild | Acute toxicity during hospitalization ([1]; 14 patients): No acute toxicity | Best PSA response after TAT (PSA decline ≥50%) ([1]; 14 patients): 7 patients | Grade 3 leukopenia ([1]; 14 patients): 1 patient | Major toxicity ([1]; 14 patients): xerostomia | Newly diagnosed grade 1 or 2 xerostomia after TAT ([1]; 14 patients): 5 patients | No PSA decline at any time ([1]; 14 patients): Three | No xerostomia at all ([1]; 14 patients): One | PSA decline of any amount ([1]; 14 patients): 11 patients | Preexisting xerostomia after ^177Lu-PSMA, no worsening after TAT ([1]; 14 patients): Eight | Any PSA decline [1, 6]: 8 patients | PSA decline of at least 50% [1, 6]: 5 patients | Any PSA decline [1, 7]: 73% | PSA decline ≥50% [1, 7]: 45% | Absorbed dose, left kidney ([2]; 8.1 MBq, SPECT at 24 h p. i.): 0.18 SV(RBE=5)MBq | Absorbed dose, right kidney ([2]; 8.1 MBq, SPECT at 24 h p. i.): 0.17 SV(RBE=5)MBq | Absorbed dose, small lesion in the right hip ([2]; human, in vivo): 0.26 SV(RBE=5)MBq | Biochemical response PSA50 ([3]; 1 patient, 8 MBq per cycle): 100% | Major toxicity ([3]; 1 patient, 8 MBq per cycle): xerostomia | Main TAT-related side effect ([3]; already preexisting after 10 cycles of RLT): grade 2 xerostomia | Hematological side effects ([3]; human, in vivo): No TAT-related grade 3/4 hematological side effects | Response ([3]; two cycles after failure of ^177Lu-PSMA-617): encouraging response | Radiochemical purity by the radio-TLC method after 120-hour time point [4]: greater than 98% | Effect of DTPA on the stability [5]: significantly reduce the stability
